Experimental data as given in ChEMBL document CHEMBL1201862, “PubChem BioAssay data set” (2004).
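Method: 48-hour compound exposure of cells in 96-well plates, five concentrations, linear interpolation of endpoints. GI50 is the concentration that inhibits growth by half.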 Active and inactive are the calls of the source. No stated cut-off is given here; in the data, active = GI50 up to about 1.1 µM and inactive = higher.

Key:
Test in all cases: NCI anticancer screen, dose series, 48 h
786-0 = test system: 786-0
A549 = test system: A549
ACHN = test system: ACHN
CAKI-1 = test system: CAKI-1
CCRF-CEM = test system: CCRF-CEM
COLO 205 = test system: COLO 205
DLD-1 = test system: DLD-1
DMS-114 = test system: DMS-114
DMS-273 = test system: DMS-273
EKVX = test system: EKVX
HCC 2998 = test system: HCC 2998
HCT-15 = test system: HCT-15
HL-60 = test system: HL-60
HOP-18 = test system: HOP-18
HOP-62 = test system: HOP-62
HOP-92 = test system: HOP-92
HT-29 = test system: HT-29
IGROV-1 = test system: IGROV-1
K562 = test system: K562
KM-20L2 = test system: KM-20L2
KM12 = test system: KM12
LOX IMVI = test system: LOX IMVI
LXFL 529 = test system: LXFL 529
M14 = test system: M14
M19-MEL = test system: M19-MEL
MOLT-4 = test system: MOLT-4
Malme-3M = test system: Malme-3M
NCI-H23 = test system: NCI-H23
NCI-H460 = test system: NCI-H460
NCI-H522 = test system: NCI-H522
OVCAR-3 = test system: OVCAR-3
OVCAR-4 = test system: OVCAR-4
OVCAR-5 = test system: OVCAR-5
OVCAR-8 = test system: OVCAR-8
RPMI-8226 = test system: RPMI-8226
RXF 393 = test system: RXF 393
RXF 631 = test system: RXF 631
SF-268 = test system: SF-268
SF-295 = test system: SF-295
SF-539 = test system: SF-539
SK-MEL-28 = test system: SK-MEL-28
SK-MEL-2 = test system: SK-MEL-2
SK-MEL-5 = test system: SK-MEL-5
SK-OV-3 = test system: SK-OV-3
SN12C = test system: SN12C
SNB-19 = test system: SNB-19
SNB-75 = test system: SNB-75
SW-620 = test system: SW-620
TK-10 = test system: TK-10
U-251 = test system: U-251
UACC-257 = test system: UACC-257
UACC-62 = test system: UACC-62
UO-31 = test system: UO-31
A498 = test system: A498
HCT-116 = test system: HCT-116
NCI-H226 = test system: NCI-H226
SNB-78 = test system: SNB-78
SR = test system: SR
XF498 = test system: XF498

For CC1=CC(O)(c2ccc(-c3ccccc3Cl)cc2)OC1=O (stereo unspecified), the GI50 (786-0) was > 100 µM (inactive), the GI50 (A549) was > 100 µM (inactive) and the GI50 (ACHN) was > 100 µM (inactive). The GI50 (CAKI-1) was > 100 µM (inactive), the GI50 (CCRF-CEM) was > 100 µM (inactive) and the GI50 (COLO 205) was > 100 µM (inactive). For the same compound, the GI50 (DLD-1) was > 100 µM (inactive), the GI50 (DMS-114) was > 100 µM (inactive) and the GI50 (DMS-273) was > 100 µM (inactive). The GI50 (EKVX) was > 100 µM (inactive), the GI50 (HCC 2998) was > 100 µM (inactive) and the GI50 (HCT-15) was over 100 µM. For the same compound, the GI50 (HL-60) was > 100 µM (inactive), the GI50 (HOP-18) was > 100 µM (inactive) and the GI50 (HOP-62) was > 100 µM (inactive). The GI50 (HOP-92) was > 100 µM (inactive), the GI50 (HT-29) was > 100 µM (inactive) and the GI50 (IGROV-1) was > 100 µM (inactive). For the same compound, the GI50 (K562) was > 100 µM (inactive), the GI50 (KM-20L2) was > 100 µM (inactive) and the GI50 (KM12) was > 100 µM (inactive). The GI50 (LOX IMVI) was > 100 µM (inactive), the GI50 (LXFL 529) was > 100 µM (inactive) and the GI50 (M14) was > 100 µM (inactive). The GI50 (M19-MEL) was > 100 µM (inactive), the GI50 (MOLT-4) was > 100 µM (inactive) and the GI50 (Malme-3M) was > 100 µM (inactive). The GI50 (NCI-H23) was > 100 µM (inactive), the GI50 (NCI-H460) was > 100 µM (inactive) and the GI50 (NCI-H522) was > 100 µM (inactive). For the same compound, the GI50 (OVCAR-3) was > 100 µM (inactive), the GI50 (OVCAR-4) was > 100 µM (inactive) and the GI50 (OVCAR-5) was > 100 µM (inactive). For the same compound, the GI50 (OVCAR-8) was > 100 µM (inactive), the GI50 (RPMI-8226) was > 100 µM (inactive) and the GI50 (RXF 393) was > 100 µM (inactive). For the same compound, the GI50 (RXF 631) was > 100 µM (inactive), the GI50 (SF-268) was > 100 µM (inactive) and the GI50 (SF-295) was > 100 µM (inactive). The GI50 (SF-539) was > 100 µM (inactive), the GI50 (SK-MEL-28) was > 100 µM (inactive) and the GI50 (SK-MEL-2) was > 100 µM (inactive). The GI50 (SK-MEL-5) was > 100 µM (inactive), the GI50 (SK-OV-3) was > 100 µM (inactive) and the GI50 (SN12C) was > 100 µM (inactive). For the same compound, the GI50 (SNB-19) was > 100 µM (inactive), the GI50 (SNB-75) was 43.1 µM (inactive) and the GI50 (SW-620) was > 100 µM (inactive). For the same compound, the GI50 (TK-10) was > 100 µM (inactive), the GI50 (U-251) was > 100 µM (inactive) and the GI50 (UACC-257) was > 100 µM (inactive). For the same compound, the GI50 (UACC-62) was > 100 µM (inactive) and the GI50 (UO-31) was > 100 µM (inactive).
For NC(=O)N1N=C2c3ccccc3OC[C@H]2[C@@H]1c1ccccc1, the GI50 (786-0) was 5.02 µM (inactive), the GI50 (A498) was 16.4 µM (inactive) and the GI50 (A549) was 5.4 µM (inactive). The GI50 (ACHN) was 5.68 µM (inactive), the GI50 (CAKI-1) was 35.6 µM (inactive) and the GI50 (CCRF-CEM) was 13.4 µM (inactive). The GI50 (COLO 205) was 18.2 µM (inactive), the GI50 (DLD-1) was 6.5 µM (inactive) and the GI50 (DMS-114) was 7.53 µM (inactive). For the same compound, the GI50 (DMS-273) was 9.1 µM (inactive), the GI50 (EKVX) was 35.2 µM (inactive) and the GI50 (HCC 2998) was 10.7 µM (inactive). For the same compound, the GI50 (HCT-116) was 5.6 µM (inactive), the GI50 (HCT-15) was 5.55 µM and the GI50 (HL-60) was 22.6 µM (inactive). For the same compound, the GI50 (HOP-18) was 18.7 µM (inactive), the GI50 (HOP-62) was 23.8 µM (inactive) and the GI50 (HOP-92) was 13.8 µM (inactive). For the same compound, the GI50 (HT-29) was 27.6 µM (inactive), the GI50 (IGROV-1) was 18.8 µM (inactive) and the GI50 (K562) was 14.4 µM (inactive). The GI50 (KM-20L2) was 23.4 µM (inactive), the GI50 (KM12) was 9.31 µM (inactive) and the GI50 (LOX IMVI) was 26.1 µM (inactive). For the same compound, the GI50 (LXFL 529) was 31 µM (inactive), the GI50 (M14) was 2.07 µM (inactive) and the GI50 (M19-MEL) was 49.7 µM (inactive). For the same compound, the GI50 (MOLT-4) was 29.5 µM (inactive), the GI50 (Malme-3M) was 21.1 µM (inactive) and the GI50 (NCI-H226) was 22.5 µM (inactive). The GI50 (NCI-H23) was 22.6 µM (inactive), the GI50 (NCI-H460) was 13.2 µM (inactive) and the GI50 (NCI-H522) was 3.3 µM (inactive). For the same compound, the GI50 (OVCAR-3) was 20.9 µM (inactive), the GI50 (OVCAR-4) was 33.7 µM (inactive) and the GI50 (OVCAR-5) was 20.1 µM (inactive). The GI50 (OVCAR-8) was 5.07 µM (inactive), the GI50 (RPMI-8226) was 8.89 µM (inactive) and the GI50 (RXF 393) was 2.72 µM (inactive). For the same compound, the GI50 (SF-268) was 9.86 µM (inactive), the GI50 (SF-295) was 4.21 µM (inactive) and the GI50 (SF-539) was 3.92 µM (inactive). The GI50 (SK-MEL-28) was 25.5 µM (inactive), the GI50 (SK-MEL-2) was 27.6 µM (inactive) and the GI50 (SK-MEL-5) was 1.91 µM (inactive). For the same compound, the GI50 (SK-OV-3) was 8.95 µM (inactive), the GI50 (SN12C) was 23.9 µM (inactive) and the GI50 (SNB-19) was 31.6 µM (inactive). The GI50 (SNB-75) was 16.6 µM (inactive), the GI50 (SNB-78) was > 38.5 µM (inactive) and the GI50 (SR) was 6.31 µM (inactive). For the same compound, the GI50 (SW-620) was 4.99 µM (inactive), the GI50 (TK-10) was 52.4 µM (inactive) and the GI50 (U-251) was 5.14 µM (inactive). The GI50 (UACC-257) was 10.9 µM (inactive), the GI50 (UACC-62) was 3.78 µM (inactive) and the GI50 (UO-31) was 42.4 µM (inactive). For the same compound, the GI50 (XF498) was 10.7 µM (inactive).
